In patent publication US11958847B1, “Pyrazolidinedione derivatives and their use as PPAR-gamma inhibitors” (KING FAISAL UNIVERSITY, priority 2023, dated 2024):

Test system: diabetic rats
Assay: Anti-hyperglycemic activity evaluation, Streptozotocin (STZ) model
Assay type: in vivo, albino rats
Conditions: for inhibition in vivo at 50 mg/kg: compound 50 mg/kg oral; for Blood glucose level 5-day / Blood glucose level 10-day: mean ± SEM, n=6
Experimental: Diabetes was experimentally generated in albino rats by intraperitoneal injection of a solution of STZ (60 mg/kg) in sterile normal saline. […] Rats were partitioned into 8 groups consisting of 6 rats in each group (n=6). The control group consisted of the first group of diabetic animals serving as vehicle control and treated orally with carboxymethylcellulose (CMC) (0.5%, 1 ml) alone; Group 2 of diabetic rats was treated with rosiglitazone 100 mg/kg. […] Blood collections were operated by tail vein sampling. The measurements of blood glucose were performed at 0, 5 and 10 days interval. Bayer's Contour TS system was used in order to monitor blood glucose level. In overnight-fasted rats, fasting blood glucose level was measured in all the groups as a base line at 0 time. All blood glucose data were expressed as mean±SEM. The analysis of the data including the variance analysis (ANOVA) and all mean comparisons were accomplished by Tukey-Kramer method. Results are regarded as significant when P<0.01. The anti-hyperglycemic activity (AA) was presented as % AA and computed as follows: % AA=100×[blood glucose level (0-day)−blood glucose level (10-day)]/[blood glucose level (0-day)].

[1] = Rattus norvegicus, 240 h, % AA=100×[glucose (0-day)−glucose (10-day)]/[glucose (0-day)]
[2] = compound 50 mg/kg oral for 7 continuous days

Structure (SMILES) | inhibition in vivo at 50 mg/kg [1] [%] | Blood glucose level 5-day [2] [mg/dL] | Blood glucose level 10-day [2] [mg/dl] | inhibition in vivo at 100 mg/kg (Rattus norvegicus, po, 240 h, rosiglitazone 100 mg/kg, % AA=100×[glucose (0-day)−glucose (10-day)]/[glucose (0-day)]) [%] | Blood glucose level 5-day (rosiglitazone 100 mg/kg) [mg/dL] | Blood glucose level 10-day (rosiglitazone 100 mg/kg) [mg/dl]
Cc1c(Cl)ccc2nc(NC(=O)CCOc3ccc(C=C4C(=O)NNC4=O)cc3)sc12 [Compound 13, N-(6-chloro-7-methylbenzo[d]thiazol-2-yl)-3-(4-((3,5-dioxopyrazolidin-4-ylidene)methyl)phenoxy)propanamide] | 65.5 | 168.4 ± 4.3 | 119.1 ± 4.3 | – | – | –
O=C(COc1ccc(C=C2C(=O)NNC2=O)cc1)Nc1nc2ccc(OC(F)(F)F)cc2s1 [Compound 3, 2-(4-((3,5-dioxopyrazolidin-4-ylidene)methyl)phenoxy)-N-(6-(trifluoromethoxy)benzo[d]thiazol-2-yl)acetamide] | 59.5 | 172.4 ± 3.4 | 141.6 ± 2.8 | – | – | –
Cc1cc2nc(NC(=O)COc3ccc(C=C4C(=O)NNC4=O)cc3)sc2cc1Cl [Compound 4, N-(6-chloro-5-methylbenzo[d]thiazol-2-yl)-2-(4-((3,5-dioxopyrazolidin-4-ylidene)methyl)phenoxy)acetamide] | 66.4 | 160.2 ± 4.1 | 113.4 ± 2.6 | – | – | –
CN(CCOc1ccc(CC2SC(=O)NC2=O)cc1)c1ccccn1 (stereo not drawn) [Rosiglitazone, reference compound] | – | – | – | 62 | 162.1 ± 3.8 | 129.7 ± 3.7
O=C(COc1ccc(C=C2C(=O)NNC2=O)cc1)Nc1nc2c(Cl)cc(F)cc2s1 [Compound 7, N-(4-chloro-6-fluorobenzo[d]thiazol-2-yl)-2-(4-((3,5-dioxopyrazolidin-4-ylidene)methyl)phenoxy)acetamide] | 66.3 | 174.1 ± 4.2 | 115.2 ± 4.2 | – | – | –
CCc1cc2nc(NC(=O)COc3ccc(C=C4C(=O)NNC4=O)cc3)sc2cc1Cl [Compound 5, N-(6-chloro-5-ethylbenzo[d]thiazol-2-yl)-2-(4-((3,5-dioxopyrazolidin-4-ylidene)methyl)phenoxy)acetamide] | 62.8 | 155.3 ± 3.9 | 127.1 ± 3.1 | – | – | –
O=C(COc1ccc(C=C2C(=O)NNC2=O)cc1)Nc1nc2ccc(C(F)(F)F)cc2s1 [Compound 2, 2-(4-((3,5-dioxopyrazolidin-4-ylidene)methyl)phenoxy)-N-(6-(trifluoromethyl)benzo[d]thiazol-2-yl)acetamide] | 64.3 | 163.7 ± 2.8 | 123.4 ± 3.5 | – | – | –
O=C(CCOc1ccc(C=C2C(=O)NNC2=O)cc1)Nc1nc2ccc(C(F)(F)F)cc2s1 [Compound 9, 3-(4-((3,5-dioxopyrazolidin-4-ylidene)methyl)phenoxy)-N-(6-(trifluoromethyl)benzo[d]thiazol-2-yl)propanamide] | 70.1 | 159.6 ± 4.6 | 105.4 ± 3.2 | – | – | –
CCc1cc2nc(NC(=O)CCOc3ccc(C=C4C(=O)NNC4=O)cc3)sc2cc1Cl [Compound 12, N-(6-chloro-5-ethylbenzo[d]thiazol-2-yl)-3-(4-((3,5-dioxopyrazolidin-4-ylidene)methyl)phenoxy)propanamide] | 64.2 | 171.6 ± 5.1 | 121.9 ± 3.6 | – | – | –
O=C(CCOc1ccc(C=C2C(=O)NNC2=O)cc1)Nc1nc2c(Cl)cc(F)cc2s1 [Compound 14, N-(4-chloro-6-fluorobenzo[d]thiazol-2-yl)-3-(4-((3,5-dioxopyrazolidin-4-ylidene)methyl)phenoxy)propanamide] | 68.9 | 162.5 ± 5.6 | 109.6 ± 5.4 | – | – | –
O=C(CCOc1ccc(C=C2C(=O)NNC2=O)cc1)Nc1nc2ccc(OC(F)(F)F)cc2s1 [Compound 10, 3-(4-((3,5-dioxopyrazolidin-4-ylidene)methyl)phenoxy)-N-(6-(trifluoromethoxy)benzo[d]thiazol-2-yl)propanamide] | 69.8 | 153.2 ± 4.2 | 105.2 ± 4.7 | – | – | –
O=C(CCOc1ccc(C=C2C(=O)NNC2=O)cc1)Nc1nc2ccc(Cl)cc2s1 [Compound 8, N-(6-chlorobenzo[d]thiazol-2-yl)-3-(4-((3,5-dioxopyrazolidin-4-ylidene)methyl)phenoxy)propanamide] | 68.7 | 166.5 ± 3.7 | 106.1 ± 5.1 | – | – | –
Cc1c(Cl)ccc2nc(NC(=O)COc3ccc(C=C4C(=O)NNC4=O)cc3)sc12 [Compound 6, N-(6-chloro-7-methylbenzo[d]thiazol-2-yl)-2-(4-((3,5-dioxopyrazolidin-4-ylidene)methyl)phenoxy)acetamide] | 58.6 | 161.3 ± 4.5 | 143.9 ± 5.3 | – | – | –
O=C(COc1ccc(C=C2C(=O)NNC2=O)cc1)Nc1nc2ccc(Cl)cc2s1 [Compound 1, N-(6-chlorobenzo[d]thiazol-2-yl)-2-(4-((3,5-dioxopyrazolidin-4-ylidene)methyl)phenoxy)acetamide] | 63.5 | 157.5 ± 3.7 | 123.9 ± 4.2 | – | – | –
Cc1cc2nc(NC(=O)CCOc3ccc(C=C4C(=O)NNC4=O)cc3)sc2cc1Cl [Compound 11, N-(6-chloro-5-methylbenzo[d]thiazol-2-yl)-3-(4-((3,5-dioxopyrazolidin-4-ylidene)methyl)phenoxy)propanamide] | 68.4 | 168.7 ± 3.4 | 107.0 ± 2.4 | – | – | –
